Assay results as given in ChEMBL document CHEMBL1140121, “X-ray crystal structure of human heme oxygenase-1 in complex with 1-(adamantan-1-yl)-2-(1H-imidazol-1-yl)ethanone: a common binding mode for imidazole-based heme oxygenase-1 inhibitors” (J Med Chem, 2008).

Columns and labels:
[1] = biological target: T1, Heme oxygenase 1 (Homo sapiens) (UniProt P09601); assay: Residual activity of human recombinant HO1 expressed in Escherichia coli DH5alpha assessed as remaining heme at 25 uM by spectrophotometry in absence of L-ascorbic acid relative to control
T1 sequence (whole entry): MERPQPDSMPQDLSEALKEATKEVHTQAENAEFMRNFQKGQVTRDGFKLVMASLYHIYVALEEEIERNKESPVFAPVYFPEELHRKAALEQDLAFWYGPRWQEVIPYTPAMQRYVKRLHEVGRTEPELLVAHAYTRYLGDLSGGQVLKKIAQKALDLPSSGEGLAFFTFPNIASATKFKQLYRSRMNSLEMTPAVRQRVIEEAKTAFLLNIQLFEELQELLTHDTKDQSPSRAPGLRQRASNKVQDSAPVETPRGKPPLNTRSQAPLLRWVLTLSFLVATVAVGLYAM

[2] = biological target: T1, Heme oxygenase 1 (Homo sapiens); assay: Residual activity of human recombinant HO1 expressed in Escherichia coli DH5alpha assessed as remaining heme at 50 uM by spectrophotometry in absence of L-ascorbic acid relative to control
[3] = biological target: T1, Heme oxygenase 1 (Homo sapiens); assay: Inhibition of human recombinant HO1 expressed in Escherichia coli DH5alpha assessed as heme degradation at 25 uM by spectrophotometry in presence of L-ascorbic acid relative to control; set-up: scale not given: the % may be the effect or the level left
[4] = biological target: T1, Heme oxygenase 1 (Homo sapiens); assay: Inhibition of human recombinant HO1 expressed in Escherichia coli DH5alpha assessed as heme degradation at 10 uM by spectrophotometry in presence of L-ascorbic acid relative to control

SMILES | residual activity [1] [%] | residual activity [2] [%] | Activity [3] [%] | inhibition [4] [%]
O=C(Cn1ccnc1)C12CC3CC(CC(C3)C1)C2 | 44 | 54 |  | 
Clc1ccc(CCC2(Cn3ccnc3)OCCO2)cc1 | 65 | 80 | 15 | 39
